Measured values from patent US20250368647A1, “NITROGEN CONTAINING CONDENSED 2,3-DIHYDROQUINAZOLINONE COMPOUNDS AS NAV1.8 INHIBITORS” (GLAXOSMITHKLINE INTELLECTUAL PROPERTY DEVELOPMENT LIMITED, priority 2022, published 2025).
Read-outs that look alike come from different tables or passages of the source. Values belong to the compound of their own block, whether it stands above or below them.

Legend:
human Nav1.8 = human Nav1.8 (Homo sapiens (Human), UniProt Q9Y5Y9); test: QPatch 48 HTX voltage-clamp electrophysiology, half inactivation state (V1/2) protocol, HEK293-Nav1.8 cells; assay type: cell-based; conditions: HEK293 cells expressing human Nav1.8, human Navβ1 and human TREK1, P2 current; for IC50: read-out: Nav1.8, pIC50 (converted)
In short: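 HEK293 cells co-expressing Navβ1 and TREK1 were voltage-clamped from −100 mV: a 20 ms step to 0 mV, 8 s inactivation at −46 mV, 20 ms at −100 mV, then a 20 ms P2 test step to 0 mV, repeated every 15 s. P2 current was normalized to vehicle and full block, corrected for run-down, and Hill-fitted (4–6 concentrations) for IC50.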

human Nav1.8, sequence (Q9Y5Y9 whole entry): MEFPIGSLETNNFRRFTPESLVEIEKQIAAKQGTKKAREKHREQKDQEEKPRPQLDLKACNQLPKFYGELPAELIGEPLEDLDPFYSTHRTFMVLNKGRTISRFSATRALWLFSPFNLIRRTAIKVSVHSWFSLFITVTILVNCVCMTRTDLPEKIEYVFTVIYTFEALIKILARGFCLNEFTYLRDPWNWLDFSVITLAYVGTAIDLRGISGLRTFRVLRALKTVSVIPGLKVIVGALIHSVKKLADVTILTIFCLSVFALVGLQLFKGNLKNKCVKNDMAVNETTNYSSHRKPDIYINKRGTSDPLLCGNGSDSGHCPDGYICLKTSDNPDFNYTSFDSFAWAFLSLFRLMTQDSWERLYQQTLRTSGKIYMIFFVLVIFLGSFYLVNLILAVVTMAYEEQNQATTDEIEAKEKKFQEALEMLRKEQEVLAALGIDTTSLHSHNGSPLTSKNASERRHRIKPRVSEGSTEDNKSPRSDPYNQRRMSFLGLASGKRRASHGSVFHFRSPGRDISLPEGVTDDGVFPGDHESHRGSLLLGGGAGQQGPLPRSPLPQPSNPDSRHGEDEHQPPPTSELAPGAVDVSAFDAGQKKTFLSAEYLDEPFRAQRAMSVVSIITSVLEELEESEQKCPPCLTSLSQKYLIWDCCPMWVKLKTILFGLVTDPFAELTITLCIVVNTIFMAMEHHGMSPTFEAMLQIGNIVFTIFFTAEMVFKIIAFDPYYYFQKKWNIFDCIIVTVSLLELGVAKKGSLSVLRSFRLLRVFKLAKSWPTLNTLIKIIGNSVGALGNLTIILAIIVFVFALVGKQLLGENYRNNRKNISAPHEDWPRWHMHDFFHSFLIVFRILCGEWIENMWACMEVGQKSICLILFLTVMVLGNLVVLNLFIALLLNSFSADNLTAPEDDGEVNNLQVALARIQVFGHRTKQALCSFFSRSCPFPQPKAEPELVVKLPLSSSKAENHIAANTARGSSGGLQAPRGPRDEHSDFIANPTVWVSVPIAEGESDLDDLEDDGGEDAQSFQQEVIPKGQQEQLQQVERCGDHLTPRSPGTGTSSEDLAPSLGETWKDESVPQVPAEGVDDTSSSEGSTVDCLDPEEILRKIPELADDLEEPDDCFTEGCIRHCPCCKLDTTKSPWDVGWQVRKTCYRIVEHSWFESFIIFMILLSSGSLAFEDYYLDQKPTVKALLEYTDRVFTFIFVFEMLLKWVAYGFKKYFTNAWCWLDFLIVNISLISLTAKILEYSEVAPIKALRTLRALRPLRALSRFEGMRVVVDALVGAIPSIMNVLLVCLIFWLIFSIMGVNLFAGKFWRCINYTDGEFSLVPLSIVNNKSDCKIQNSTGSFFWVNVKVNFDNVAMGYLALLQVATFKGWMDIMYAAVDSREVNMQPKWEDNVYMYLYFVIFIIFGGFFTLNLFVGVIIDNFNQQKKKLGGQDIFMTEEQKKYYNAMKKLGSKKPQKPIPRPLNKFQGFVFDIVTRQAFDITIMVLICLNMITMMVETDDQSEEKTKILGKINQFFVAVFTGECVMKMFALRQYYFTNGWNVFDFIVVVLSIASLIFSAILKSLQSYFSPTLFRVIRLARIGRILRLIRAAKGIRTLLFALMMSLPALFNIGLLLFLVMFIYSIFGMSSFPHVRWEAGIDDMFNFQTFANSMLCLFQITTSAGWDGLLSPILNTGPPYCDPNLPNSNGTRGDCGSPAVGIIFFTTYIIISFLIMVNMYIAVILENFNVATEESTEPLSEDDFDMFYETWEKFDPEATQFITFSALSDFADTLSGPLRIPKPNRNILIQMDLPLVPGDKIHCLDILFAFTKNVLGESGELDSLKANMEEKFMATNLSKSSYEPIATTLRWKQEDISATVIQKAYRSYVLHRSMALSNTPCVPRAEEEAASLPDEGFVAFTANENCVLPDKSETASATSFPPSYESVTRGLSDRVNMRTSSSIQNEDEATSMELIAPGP
human Nav1.8, sequence (Q07699 19-218 partner): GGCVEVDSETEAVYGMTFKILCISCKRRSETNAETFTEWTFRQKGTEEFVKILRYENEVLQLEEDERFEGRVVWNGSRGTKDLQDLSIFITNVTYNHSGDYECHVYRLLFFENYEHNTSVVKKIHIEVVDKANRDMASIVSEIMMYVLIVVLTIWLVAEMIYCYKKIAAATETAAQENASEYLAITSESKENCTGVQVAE

Compound: COc1ccc(NC(=O)c2cc(Cl)c(F)cc2Br)c(N(CCCc2cc(F)ccc2N)C(=O)OC(C)(C)C)n1
ring closure, isolated yield (the molecule shown is the open-chain precursor, other bond, 13-membered ring, CuI/DIEA, DMF, 21.9 mM, 95.0 °C): 29%

Compound: COc1ccc2c(n1)C(C)(C)CN(C(=O)OC(C)(C)C)Cc1cc(F)ccc1Nc1cc(C(F)(F)F)c(F)cc1C(=O)N2
ring closure, isolated yield (from COC(=O)c1cc(F)c(C(F)(F)F)cc1Nc1ccc(F)cc1CN(CC(C)(C)c1nc(OC)ccc1N)C(=O)OC(C)(C)C, amide bond, 13-membered ring, LiHMDS, THF, 104.0 mM, 16.0 h): 46%

Compound: COc1ccc2c(n1)C=CCCc1cc(F)ccc1N1CN2C(=O)c2cc(C(F)(F)F)ncc21
ring closure, isolated yield (from C=CCCc1cc(F)ccc1N1CN(c2ccc(OC)nc2/C=C\C)C(=O)c2cc(C(F)(F)F)ncc21, rcm bond, 11-membered ring, Hoveyda-Grubbs II, DCE, 80.0 °C, 18.5 h): 3%

Compound: COc1ccc2c(n1)C=CCc1cc(F)ccc1N1CN2C(=O)c2cc(C(F)(F)F)ccc21
ring closure, isolated yield (from C=CCc1cc(F)ccc1N1CN(c2ccc(OC)nc2C=C)C(=O)c2cc(C(F)(F)F)ccc21, rcm bond, 10-membered ring, Hoveyda-Grubbs II (20 mol%), DCE, 1.38 mM, 80.0 °C, 4.0 h): 72%

Compound: COc1ccc2c(n1)CC=CCCc1cc(F)ccc1N1CN2C(=O)c2cc(C(F)(F)F)ccc21
ring closure, isolated yield (from C=CCCc1cc(F)ccc1N1CN(c2ccc(OC)nc2CC=C)C(=O)c2cc(C(F)(F)F)ccc21, rcm bond, 12-membered ring, Hoveyda-Grubbs II (20 mol%), DCE, 50.3 mM, 80.0 °C, 18.0 h): 67%

Compound: COc1ccc2c(n1)CC=CCc1cc(F)ccc1N1CN2C(=O)c2cc(C(F)(F)F)ccc21
ring closure, isolated yield (from C=CCc1cc(F)ccc1N1CN(c2ccc(OC)nc2CC=C)C(=O)c2cc(C(F)(F)F)ccc21, rcm bond, 11-membered ring, Hoveyda-Grubbs II (20 mol%), DCE, 8.6 mM, 80.0 °C, 16.0 h): 68%

Compound: COc1ccc2c(n1)CC=CCc1cc(F)ccc1N1CN2C(=O)c2ccc(C(F)(F)F)cc21
ring closure, isolated yield (from C=CCc1cc(F)ccc1N1CN(c2ccc(OC)nc2CC=C)C(=O)c2ccc(C(F)(F)F)cc21, rcm bond, 11-membered ring, Hoveyda-Grubbs II (20 mol%), DCE, 8.6 mM, 80.0 °C, 16.0 h): 52%

Compound: COc1ccc2c(n1)CCC=CCc1cc(F)ccc1N1CN2C(=O)c2cc(Cl)cnc21
ring closure, isolated yield (from C=CCCc1nc(OC)ccc1N1CN(c2ccc(F)cc2CC=C)c2ncc(Cl)cc2C1=O, rcm bond, 12-membered ring, Hoveyda-Grubbs II, DCE, 80.0 °C, 1.0 h): 51%

Compound: COc1ccc2c(n1)N(C(=O)OC(C)(C)C)CCCc1c(ccc(F)c1F)Nc1cc(C(F)(F)F)c(F)cc1C(=O)N2
ring closure, isolated yield (from COc1ccc(N)c(N(CCCc2c(Nc3cc(C(F)(F)F)c(F)cc3C(=O)O)ccc(F)c2F)C(=O)OC(C)(C)C)n1, amide bond, 13-membered ring, PyOxim/DIEA, DMF, 129.0 mM, 24.0 h): 72%

Compound: COc1ccc2c(n1)N(C(=O)OC(C)(C)C)CCCc1cc(F)ccc1Nc1ccc(C(F)(F)F)cc1C(=O)N2
ring closure, isolated yield (from COc1ccc(N)c(N(CCCc2cc(F)ccc2Nc2ccc(C(F)(F)F)cc2C(=O)O)C(=O)OC(C)(C)C)n1, amide bond, 13-membered ring, PyOxim/DIEA, DMF, 95.4 mM, 2.0 h): 80%

Compound: COc1ccc2c(n1)NCCCCc1cc(F)ccc1N1CN2C(=O)c2cc(C(F)(F)F)ccc21
ring closure, isolated yield (from COc1ccc(N2CN(c3ccc(F)cc3CCCCN)c3ccc(C(F)(F)F)cc3C2=O)c(Br)n1, cn_pd bond, 12-membered ring, Pd2(dba)3/BINAP/NaOtBu, toluene, 71.0 mM, 90.0 °C, 3.0 h): 40%

Compound: COc1ccc2c(n1)NCCOCc1cc(F)ccc1N1CN2C(=O)c2cc(F)c(C(F)(F)F)cc21
ring closure, isolated yield (from COc1ccc(N2CN(c3ccc(F)cc3COCCN)c3cc(C(F)(F)F)c(F)cc3C2=O)c(Br)n1, cn_pd bond, 12-membered ring, Pd2(dba)3/BINAP/NaOtBu, toluene, 46.4 mM, 100.0 °C, 4.0 h): 37%

Compound: O=C1c2cc(C(F)(F)F)ccc2N2CN1c1ccncc1CC=CCCc1cc(F)ccc12
ring closure, isolated yield (from C=CCCc1cc(F)ccc1N1CN(c2ccncc2CC=C)C(=O)c2cc(C(F)(F)F)ccc21, rcm bond, 12-membered ring, Greencat-iPr, DCE, 80.0 °C, 4.0 h): 40%

Compound: 3^4-fluoro-1^6-methoxy-2^7-(trifluoromethyl)-2^1,2^2,2^3,2^4-tetrahydro-4-oxa-2(3,1)-quinazolina-1(3,2)-pyridina-3(1,2)-benzenacyclo octaphane-6-en-2^4-one
ring closure, isolated yield (rcm bond, 12-membered ring, Hoveyda-Grubbs M722 (Grubbs C711), 80.0 °C): 7%

Nav1.8, pIC50 (human Nav1.8): 7.4
Compound: C[C@H]1NCCc2[nH]c(=O)ccc2N2CN(c3cc(Cl)c(F)cc3C2=O)c2ccc(F)cc21 [Example 121, (10R)-3-chloro-2,8-difluoro-10-methyl-10,11,12,13-tetrahydro-19H-5,18-methanodibenzo[c,f]pyrido[3,2-j][1,5,9]triazacyclotridecine-15,19(14H)-dione]

Nav1.8, pIC50 (human Nav1.8): 5.9
Compound: C[C@@H]1NCCc2[nH]c(=O)ccc2N2CN(c3cc(Cl)c(F)cc3C2=O)c2ccc(F)cc21 [Example 122, (10S)-3-chloro-2,8-difluoro-10-methyl-10,11,12,13-tetrahydro-19H-5,18-methanodibenzo[c,f]pyrido[3,2-j][1,5,9]triazacyclotridecine-15,19(14H)-dione]

Nav1.8, pIC50 (human Nav1.8): 7
Compound: CCC1NCCc2[nH]c(=O)ccc2N2CN(c3cc(C(F)(F)F)c(F)cc3C2=O)c2ccc(F)cc21.Cl (stereo not drawn) [Example 126, 10-Ethyl-2,8-difluoro-3-(trifluoromethyl)-10,11,12,13-tetrahydro-19H-5,18-methanodibenzo[c,f]pyrido[3,2-j][1,5,9]triazacyclotridecine-15,19(14H)-dione hydrochloride]

IC50 (human Nav1.8): 63.1 nM
Compound: CC[C@H]1NCCc2[nH]c(=O)ccc2N2CN(c3cc(C(F)(F)F)c(F)cc3C2=O)c2ccc(F)cc21 [Example 127, (10R)-10-ethyl-2,8-difluoro-3-(trifluoromethyl)-10,11,12,13-tetrahydro-19H-5,18-methanodibenzo[c,f]pyrido[3,2-j][1,5,9]triazacyclotridecine-15,19(14H)-dione]

IC50 (human Nav1.8): 631 nM
Compound: CC[C@@H]1NCCc2[nH]c(=O)ccc2N2CN(c3cc(C(F)(F)F)c(F)cc3C2=O)c2ccc(F)cc21 [Example 128, (10S)-10-ethyl-2,8-difluoro-3-(trifluoromethyl)-10,11,12,13-tetrahydro-19H-5,18-methanodibenzo[c,f]pyrido[3,2-j][1,5,9]triazacyclotridecine-15,19(14H)-dione]

Nav1.8, pIC50 (human Nav1.8): 6.4
Compound: O=C1c2cc(F)c(C(F)(F)F)cc2N2CN1c1ccc(=O)[nH]c1NCCOCc1cc(F)ccc12 [Example 129, 2^6,3^4-Difluoro-2^7-(trifluoromethyl)-1^1,1^2,2^1,2^2,2^3,2^4-hexahydro-5-oxa-8-aza-2(3,1)-quinazolina-1(5,6)-pyridina-3(1,2)-benzenacyclooctaphane-1^2,2^4-dione]

Nav1.8, pIC50 (human Nav1.8): 6.8
Compound: CC1CCc2c(ccc(F)c2F)N2CN(C(=O)c3cc(F)c(C(F)(F)F)cc32)c2ccc(=O)[nH]c2N1 (stereo not drawn) [Example 130, 2,8,9-Trifluoro-12-methyl-3-(trifluoromethyl)-10,11,12,13-tetrahydro-19H-5,18-methanodibenzo[f,i]pyrido[2,3-b][1,4,8]triazacyclotridecin-15,19(14H)-dione]

IC50 (human Nav1.8): 6.31 nM
Compound: C[C@H]1CCNc2[nH]c(=O)ccc2N2CN(c3cc(C(F)(F)F)c(F)cc3C2=O)c2ccc(F)c(F)c21 [Example 132, (10S)-2,8,9-trifluoro-10-methyl-3-(trifluoromethyl)-10,11,12,13-tetrahydro-19H-5,18-methanodibenzo[f,i]pyrido[2,3-b][1,4,8]triazacyclotridecine-15,19(14H)-dione]

IC50 (human Nav1.8): 39.8 nM
Compound: C[C@@H]1CCNc2[nH]c(=O)ccc2N2CN(c3cc(C(F)(F)F)c(F)cc3C2=O)c2ccc(F)c(F)c21 [Example 133, (10R)-2,8,9-trifluoro-10-methyl-3-(trifluoromethyl)-10,11,12,13-tetrahydro-19H-5,18-methanodibenzo[f,i]pyrido[2,3-b][1,4,8]triazacyclotridecine-15,19(14H)-dione]

Nav1.8, pIC50 (human Nav1.8): 7.3
Compound: CC1(C)CNCc2cc(F)ccc2N2CN(C(=O)c3cc(F)c(C(F)(F)F)cc32)c2ccc(=O)[nH]c21 [Example 134, 2,8-Difluoro-13,13-dimethyl-3-(trifluoromethyl)-10,11,12,13-tetrahydro-19H-5,18-methanodibenzo[c,f]pyrido[3,2-j][1,5,9]triazacyclotridecine-15,19(14H)-dione]

Nav1.8, pIC50 (human Nav1.8): 7.4
Compound: Cl.O=C1c2cc(F)c(C(F)(F)F)cc2N2CN1c1ccc(=O)[nH]c1NCCNCc1c2ccc(F)c1F [Example 135, 2^6,3^3,3^4-Trifluoro-2^7-(trifluoromethyl)-1^1,1^2,2^1,2^2,2^3,2^4-hexahydro-5,8-diaza-2(3,1)-quinazolina-1(5,6)-pyridina-3(1,2)-benzenacyclooctaphane-1^2,2^4-dione hydrochloride]

Nav1.8, pIC50 (human Nav1.8): 6.9
Compound: C[C@H]1NCCCc2[nH]c(=O)ccc2N2CN(c3cc(C(F)(F)F)c(F)cc3C2=O)c2ccc(F)cc21 [Example 136, (4R)-2^6,3^4-Difluoro-4-methyl-2^7-(trifluoromethyl)-1^1,1^2,2^1,2^2,2^3,2^4-hexahydro-5-aza-2(3,1)-quinazolina-1(5,6)-pyridina-3(1,2)-benzenacyclooctaphane-1^2,2^4-dione]

Nav1.8, pIC50 (human Nav1.8): 6.6
Compound: C[C@@H]1NCCCc2[nH]c(=O)ccc2N2CN(c3cc(C(F)(F)F)c(F)cc3C2=O)c2ccc(F)cc21 [Example 137, (4S)-2^6,3^4-Difluoro-4-methyl-2^7-(trifluoromethyl)-1^1,1^2,2^1,2^2,2^3,2^4-hexahydro-5-aza-2(3,1)-quinazolina-1(5,6)-pyridina-3(1,2)-benzenacyclooctaphane-1^2,2^4-dione]
